ChEMBL document CHEMBL1201862, “PubChem BioAssay data set” (2004)
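Step 1: Grow cells in 96-well plates. Step 2: Expose to compound for 48 hours at 5 concentrations. Step 3: Interpolate endpoints linearly; if unreached, use highest concentration. At the GI50, growth is halved.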 Active and inactive are the calls of the source. Cut-off read from the data, not from the text of the source: active = GI50 up to about 1.1 µM and inactive = higher.

What was measured:
Assay in all cases: NCI anticancer screen, dose series, 48 h
SN12C = tested on: SN12C
A498 = tested on: A498
SNB-75 = tested on: SNB-75
OVCAR-8 = tested on: OVCAR-8
SW-620 = tested on: SW-620
DMS-114 = tested on: DMS-114
NCI-H460 = tested on: NCI-H460
SF-268 = tested on: SF-268
A549 = tested on: A549
LOX IMVI = tested on: LOX IMVI
NCI-H522 = tested on: NCI-H522
HCT-116 = tested on: HCT-116
OVCAR-5 = tested on: OVCAR-5
786-0 = tested on: 786-0
NCI-H226 = tested on: NCI-H226
HL-60 = tested on: HL-60
OVCAR-3 = tested on: OVCAR-3
HCT-15 = tested on: HCT-15
M19-MEL = tested on: M19-MEL
SF-539 = tested on: SF-539
CCRF-CEM = tested on: CCRF-CEM
COLO 205 = tested on: COLO 205
LXFL 529 = tested on: LXFL 529
MOLT-4 = tested on: MOLT-4
UACC-62 = tested on: UACC-62
TK-10 = tested on: TK-10
K562 = tested on: K562
SK-MEL-5 = tested on: SK-MEL-5
RXF 393 = tested on: RXF 393
KM12 = tested on: KM12
SF-295 = tested on: SF-295
DMS-273 = tested on: DMS-273
UACC-257 = tested on: UACC-257
KM-20L2 = tested on: KM-20L2
SNB-78 = tested on: SNB-78
SK-OV-3 = tested on: SK-OV-3
HOP-62 = tested on: HOP-62
IGROV-1 = tested on: IGROV-1
HT-29 = tested on: HT-29
Malme-3M = tested on: Malme-3M
OVCAR-4 = tested on: OVCAR-4
U-251 = tested on: U-251
ACHN = tested on: ACHN
HCC 2998 = tested on: HCC 2998
SNB-19 = tested on: SNB-19
M14 = tested on: M14
NCI-H23 = tested on: NCI-H23
CAKI-1 = tested on: CAKI-1
DLD-1 = tested on: DLD-1
HOP-18 = tested on: HOP-18
XF498 = tested on: XF498
EKVX = tested on: EKVX
SK-MEL-28 = tested on: SK-MEL-28
HOP-92 = tested on: HOP-92
RPMI-8226 = tested on: RPMI-8226
SK-MEL-2 = tested on: SK-MEL-2
UO-31 = tested on: UO-31

In the case of `CCOC(=O)c1nc2ccc(Cl)cc2c2c1CCO2`, the GI50 (SN12C) is reported as 82 µM (inactive), the GI50 (A498) is reported as 31 µM (inactive) and the GI50 (SNB-75) is reported as 24 µM (inactive). For the same molecule, the GI50 (OVCAR-8) was > 100 µM (inactive), the GI50 (SW-620) was > 100 µM (inactive) and the GI50 (DMS-114) was 64.3 µM (inactive). The GI50 (NCI-H460) was > 100 µM (inactive), the GI50 (SF-268) was 90.8 µM (inactive) and the GI50 (A549) was > 100 µM (inactive). The GI50 (LOX IMVI) was 59.6 µM (inactive), the GI50 (NCI-H522) was 34.7 µM (inactive) and the GI50 (HCT-116) was 57 µM (inactive). The GI50 (OVCAR-5) was > 100 µM (inactive), the GI50 (786-0) was > 100 µM (inactive) and the GI50 (NCI-H226) was > 100 µM (inactive). For the same molecule, the GI50 (HL-60) was 18.2 µM (inactive), the GI50 (OVCAR-3) was > 100 µM (inactive) and the GI50 (HCT-15) was 99.1 µM. For the same molecule, the GI50 (M19-MEL) was > 100 µM (inactive), the GI50 (SF-539) was 95.1 µM (inactive) and the GI50 (CCRF-CEM) was 79.4 µM (inactive). For the same molecule, the GI50 (COLO 205) was > 100 µM (inactive), the GI50 (LXFL 529) was 51.4 µM (inactive) and the GI50 (MOLT-4) was 53.5 µM (inactive). For the same molecule, the GI50 (UACC-62) was 87.7 µM (inactive), the GI50 (TK-10) was 76.7 µM (inactive) and the GI50 (K562) was 91.2 µM (inactive). For the same molecule, the GI50 (SK-MEL-5) was 55.6 µM (inactive), the GI50 (RXF 393) was 41.5 µM (inactive) and the GI50 (KM12) was > 100 µM (inactive). The GI50 (SF-295) was > 100 µM (inactive), the GI50 (DMS-273) was > 100 µM (inactive) and the GI50 (UACC-257) was > 100 µM (inactive). The GI50 (KM-20L2) was > 100 µM (inactive), the GI50 (SNB-78) was > 100 µM (inactive) and the GI50 (SK-OV-3) was 76 µM (inactive). The GI50 (HOP-62) was 82.4 µM (inactive), the GI50 (IGROV-1) was 58.2 µM (inactive) and the GI50 (HT-29) was > 100 µM (inactive). For the same molecule, the GI50 (Malme-3M) was > 100 µM (inactive), the GI50 (OVCAR-4) was 70.1 µM (inactive) and the GI50 (U-251) was 74.6 µM (inactive). For the same molecule, the GI50 (ACHN) was 55 µM (inactive), the GI50 (HCC 2998) was > 100 µM (inactive) and the GI50 (SNB-19) was > 100 µM (inactive). For the same molecule, the GI50 (M14) was > 100 µM (inactive), the GI50 (NCI-H23) was > 100 µM (inactive) and the GI50 (CAKI-1) was 51.8 µM (inactive). For the same molecule, the GI50 (DLD-1) was > 100 µM (inactive), the GI50 (HOP-18) was 23.6 µM (inactive) and the GI50 (XF498) was 72.8 µM (inactive). The GI50 (EKVX) was > 100 µM (inactive) and the GI50 (SK-MEL-28) was > 100 µM (inactive).
In the case of `CCOc1ccc2c(c1)[n+]([O-])c(-c1nc3ccccc3s1)c(N)[n+]2[O-]`, the GI50 (SN12C) is reported as 82.6 µM (inactive), the GI50 (A498) is reported as 61.8 µM (inactive) and the GI50 (SNB-75) is reported as 57.4 µM (inactive). The GI50 (OVCAR-8) was 75.2 µM (inactive), the GI50 (SW-620) was 86.7 µM (inactive) and the GI50 (DMS-114) was 44.1 µM (inactive). For the same molecule, the GI50 (NCI-H460) was 58.7 µM (inactive), the GI50 (SF-268) was 32.1 µM (inactive) and the GI50 (A549) was 61.8 µM (inactive). The GI50 (LOX IMVI) was 64 µM (inactive), the GI50 (NCI-H522) was 21.6 µM (inactive) and the GI50 (OVCAR-5) was > 100 µM (inactive). For the same molecule, the GI50 (786-0) was 48.4 µM (inactive), the GI50 (NCI-H226) was 45.4 µM (inactive) and the GI50 (HL-60) was 31.2 µM (inactive). The GI50 (OVCAR-3) was 38.4 µM (inactive), the GI50 (HCT-15) was 49.5 µM and the GI50 (M19-MEL) was > 100 µM (inactive). For the same molecule, the GI50 (SF-539) was 43.1 µM (inactive), the GI50 (CCRF-CEM) was 48 µM (inactive) and the GI50 (HOP-92) was 26.2 µM (inactive). For the same molecule, the GI50 (RPMI-8226) was 44.3 µM (inactive), the GI50 (COLO 205) was > 100 µM (inactive) and the GI50 (LXFL 529) was 37.4 µM (inactive). The GI50 (SK-MEL-2) was 52.8 µM (inactive), the GI50 (MOLT-4) was 36.7 µM (inactive) and the GI50 (UACC-62) was 64.7 µM (inactive). For the same molecule, the GI50 (TK-10) was > 100 µM (inactive), the GI50 (K562) was 61.9 µM (inactive) and the GI50 (SK-MEL-5) was 30.3 µM (inactive). For the same molecule, the GI50 (KM12) was 60.7 µM (inactive), the GI50 (UO-31) was 31.3 µM (inactive) and the GI50 (SF-295) was 50 µM (inactive). For the same molecule, the GI50 (DMS-273) was 52.6 µM (inactive), the GI50 (UACC-257) was 42.1 µM (inactive) and the GI50 (KM-20L2) was > 100 µM (inactive). The GI50 (SNB-78) was > 100 µM (inactive), the GI50 (SK-OV-3) was > 100 µM (inactive) and the GI50 (HOP-62) was 88.7 µM (inactive). The GI50 (IGROV-1) was 75.9 µM (inactive), the GI50 (HT-29) was 58.7 µM (inactive) and the GI50 (Malme-3M) was > 100 µM (inactive). The GI50 (OVCAR-4) was 65.5 µM (inactive), the GI50 (U-251) was 46.7 µM (inactive) and the GI50 (ACHN) was 55.1 µM (inactive). The GI50 (HCC 2998) was 96.6 µM (inactive), the GI50 (SNB-19) was 48.1 µM (inactive) and the GI50 (M14) was 60.7 µM (inactive). The GI50 (NCI-H23) was 25.6 µM (inactive), the GI50 (CAKI-1) was 83.4 µM (inactive) and the GI50 (DLD-1) was 76.4 µM (inactive). For the same molecule, the GI50 (HOP-18) was 15.4 µM (inactive), the GI50 (XF498) was 25.8 µM (inactive) and the GI50 (EKVX) was 53.1 µM (inactive). For the same molecule, the GI50 (SK-MEL-28) was 38.7 µM (inactive).
In the case of `COc1cc(/C=C\c2cccnc2)cc(OC)c1OC`, the GI50 (SN12C) is reported as 42.6 µM (inactive), the GI50 (SNB-75) is reported as 58.3 µM (inactive) and the GI50 (OVCAR-8) is reported as 63.2 µM (inactive). The GI50 (SW-620) was 38.3 µM (inactive), the GI50 (DMS-114) was 46.8 µM (inactive) and the GI50 (NCI-H460) was 40.8 µM (inactive). The GI50 (SF-268) was 77.1 µM (inactive), the GI50 (A549) was 42.1 µM (inactive) and the GI50 (LOX IMVI) was 26.2 µM (inactive). For the same molecule, the GI50 (NCI-H522) was 25.3 µM (inactive), the GI50 (HCT-116) was 58.2 µM (inactive) and the GI50 (OVCAR-5) was > 100 µM (inactive). For the same molecule, the GI50 (786-0) was 67.9 µM (inactive), the GI50 (NCI-H226) was > 100 µM (inactive) and the GI50 (HL-60) was 18.9 µM (inactive). The GI50 (OVCAR-3) was 54 µM (inactive), the GI50 (HCT-15) was 39.4 µM and the GI50 (M19-MEL) was 76.7 µM (inactive). For the same molecule, the GI50 (SF-539) was 36.6 µM (inactive), the GI50 (CCRF-CEM) was 25.7 µM (inactive) and the GI50 (HOP-92) was 26 µM (inactive). The GI50 (RPMI-8226) was 19.6 µM (inactive), the GI50 (COLO 205) was 29.3 µM (inactive) and the GI50 (LXFL 529) was 48.1 µM (inactive). For the same molecule, the GI50 (MOLT-4) was 9.84 µM (inactive), the GI50 (UACC-62) was 46.3 µM (inactive) and the GI50 (TK-10) was > 100 µM (inactive). The GI50 (K562) was 24.5 µM (inactive), the GI50 (SK-MEL-5) was 18.9 µM (inactive) and the GI50 (RXF 393) was 22.6 µM (inactive). For the same molecule, the GI50 (KM12) was 36.1 µM (inactive), the GI50 (UO-31) was 27.9 µM (inactive) and the GI50 (SF-295) was 36.6 µM (inactive). The GI50 (DMS-273) was 33.1 µM (inactive), the GI50 (UACC-257) was 68.4 µM (inactive) and the GI50 (KM-20L2) was 33.8 µM (inactive). For the same molecule, the GI50 (SNB-78) was > 100 µM (inactive), the GI50 (HOP-62) was 37.8 µM (inactive) and the GI50 (IGROV-1) was 57.9 µM (inactive). The GI50 (HT-29) was 40.7 µM (inactive), the GI50 (Malme-3M) was 64.9 µM (inactive) and the GI50 (OVCAR-4) was > 100 µM (inactive). For the same molecule, the GI50 (U-251) was 33 µM (inactive), the GI50 (ACHN) was > 100 µM (inactive) and the GI50 (SNB-19) was 83.9 µM (inactive). The GI50 (M14) was 26.8 µM (inactive), the GI50 (NCI-H23) was 66.8 µM (inactive) and the GI50 (CAKI-1) was 44.5 µM (inactive). For the same molecule, the GI50 (DLD-1) was 72.1 µM (inactive), the GI50 (HOP-18) was > 100 µM (inactive) and the GI50 (XF498) was 48.9 µM (inactive). For the same molecule, the GI50 (EKVX) was 38.1 µM (inactive) and the GI50 (SK-MEL-28) was 69.3 µM (inactive).
